In brackets after ≈: the same amount, converted by molar mass. Starred links: 1 amine or outer side, 2 acyl side, 3 side chain; linkers in the order of their positions; H or OH if unused. Positions of bridges follow the written chain, without caps; N, C: chain ends. Non-standard residues stand in square brackets, D forms with d. Residues, ends and D or L forms follow the SMILES beside them. *: point of attachment. pTerphenylCO(4''-OnC5H11) = CCCCCOc1ccc(-c2ccc(-c3ccc(C(=O)*)cc3)cc2)cc1; Pro(cis-4-guanidino) = NC(N)=N[C@@H]1CN[C@H](C(=O)O)C1; hTyr(3-COCH2NH2) = NCC(=O)c1cc(CC[C@H](N)C(=O)O)ccc1O; X7 = CCCCCCCCOc1ccc(-c2ccc(-c3ccc(C(=O)*)cc3)cc2)cc1; X4 = NCCC(=O)c1cc(CC[C@H](N[*:1])C(=O)[*:2])ccc1O; Pro(4S-NH2) = N[C@@H]1CN[C@H](C(=O)O)C1; Hyp = O=C(O)[C@@H]1C[C@@H](O)CN1; Orn = NCCC[C@H](N)C(=O)O

Holding throughout (type): functional
Experiment [1] deals with Candida albicans. The experiment is described as follows: Antifungal activity against Candida albicans 579A.
In experiment [2] the test system is Kluyveromyces marxianus. The experiment can be described thus: Antifungal activity against Candida kefyr ATCC 28838.
Experiment [3] deals with Aspergillus niger. The experiment can be described thus: Antifungal activity against Aspergillus niger ATCC 16404.
The subject of experiment [4] is Nakaseomyces glabratus. The experiment is described as follows: Antifungal activity against Torulopsis glabrata ATCC 15545.
Experiment [5] concerns Candida albicans. The experiment is described as follows: Antifungal activity against Candida albicans CAF-2.
For experiment [6], the system named is Candida albicans. The experiment is described as follows: Antifungal activity against Candida albicans CCH 442.
Experiment [7] has as its system Candida albicans. The experiment is described as follows: Antifungal activity against Candida albicans ATCC 62376.
Experiment [8] deals with [Candida] zeylanoides. The experiment can be described thus: Antifungal activity against Candida zeylanoides NRRL Y-112.
Experiment [9] has as its system Naganishia albida. The experiment is described as follows: Antifungal activity against Cryptococcus albidus ATCC 34140.
Experiment [10] has as its system Candida albicans. The experiment can be described thus: Antifungal activity against Candida albicans ATCC 10231.
Experiment [11] deals with Candida albicans. The experiment is described as follows: Antifungal activity against Candida albicans ATCC 38247.
The mark [12] stands for this setting: Candida albicans, read-out: MIC.
Where [13] appears, read: Kluyveromyces marxianus, ATCC 28838, read-out: MIC.
The mark [14] stands for this setting: Aspergillus niger, ATCC 16404, read-out: MIC.
[15] abbreviates: Nakaseomyces glabratus, ATCC 15545, read-out: MIC.
Setting [16] is: Candida albicans, ATCC 62376, read-out: MIC.
Where [17] appears, read: Dujonia zeylanoides, read-out: MIC.
[18] abbreviates: Naganishia albida, ATCC 34140, read-out: MIC.
Setting [19] is: Candida albicans, ATCC 10231, read-out: MIC.
Setting [20] is: Candida albicans, ATCC 38247, read-out: MIC.

For orientation: MIC means the smallest concentration in the dilution series that meets the test's criterion for growth inhibition. `CCCCCCCCOc1ccc(-c2ccc(-c3ccc(C(=O)N[C@H]4CCCNC(=O)[C@@H]5C[C@H](N)CN5C(=O)[C@H]([C@@H](C)O)NC(=O)[C@H](CCc5ccc(O)c(C(=O)CN)c5)NC(=O)[C@@H]5CCCN5C(=O)[C@H]([C@@H](C)O)NC4=O)cc3)cc2)cc1` (X7-[Orn]TP[hTyr(3-COCH2NH2)]T[Pro(4S-NH2)]; lactam 1-C): the MIC came to 0.78 µg/mL (≈ 0.682 µM) in experiment [1] (setting [12]); 0.78 µg/mL (≈ 0.682 µM) in experiment [2] (setting [13]); 25 µg/mL (≈ 21.8 µM) in [3] (setting [14]); 0.78 µg/mL (≈ 0.682 µM) in experiment [4] (setting [15]); 0.1 µg/mL (≈ 0.0874 µM) in [5] (setting [12]); 0.78 µg/mL (≈ 0.682 µM) in experiment [6] (setting [12]). Moreover, the MIC in [7] (setting [16]) came out at 0.78 µg/mL (≈ 0.682 µM); in experiment [8] (setting [17]), 0.78 µg/mL (≈ 0.682 µM); in experiment [9] (setting [18]), 12.5 µg/mL (≈ 10.9 µM); in experiment [10] (setting [19]), 1.56 µg/mL (≈ 1.36 µM); in [11] (setting [20]), 0.78 µg/mL (≈ 0.682 µM).
With `CCCCCOc1ccc(-c2ccc(-c3ccc(C(=O)N[C@H]4CCCNC(=O)[C@@H]5C[C@H](N=C(N)N)CN5C(=O)[C@H]([C@@H](C)O)NC(=O)[C@H](CCc5ccc(O)c(C(=O)CN)c5)NC(=O)[C@@H]5C[C@@H](O)CN5C(=O)[C@H]([C@@H](C)O)NC4=O)cc3)cc2)cc1` (stereo in doubt; 1), the MIC amounted to 0.2 µg/mL (≈ 0.172 µM) in [1] (setting [12]); 1.56 µg/mL (≈ 1.34 µM) in [2] (setting [13]); 6.25 µg/mL (≈ 5.39 µM) in [3] (setting [14]); 1.56 µg/mL (≈ 1.34 µM) in experiment [4] (setting [15]); 0.2 µg/mL (≈ 0.172 µM) in experiment [5] (setting [12]); 0.2 µg/mL (≈ 0.172 µM) in experiment [6]. For the same compound, the MIC came out at 0.2 µg/mL (≈ 0.172 µM) in experiment [7] (setting [16]); 0.39 µg/mL (≈ 0.336 µM) in experiment [8]; 12.5 µg/mL (≈ 10.8 µM) in experiment [9] (setting [18]); 0.2 µg/mL (≈ 0.172 µM) in experiment [10]; 0.2 µg/mL (≈ 0.172 µM) in experiment [11].
As to `CCCCCOc1ccc(-c2ccc(-c3ccc(C(=O)N[C@H]4CCCNC(=O)[C@@H]5C[C@H](N=C(N)N)CN5C(=O)[C@H]([C@@H](C)O)NC(=O)[C@H](CCc5ccc(O)c(C(=O)CN)c5)NC(=O)[C@@H]5C[C@@H](O)CN5C(=O)[C@H]([C@@H](C)O)NC4=O)cc3)cc2)cc1` (stereo in doubt; 4), the MIC in experiment [1] stood at 0.39 µg/mL (≈ 0.336 µM); in experiment [2], 0.78 µg/mL (≈ 0.672 µM); in experiment [3] it was 6.25 µg/mL (≈ 5.39 µM); in experiment [4], 1.56 µg/mL (≈ 1.34 µM); in [5] it was 0.39 µg/mL (≈ 0.336 µM); in experiment [6], 0.78 µg/mL (≈ 0.672 µM). The MIC was found to be 0.39 µg/mL (≈ 0.336 µM) in experiment [7]; 1.56 µg/mL (≈ 1.34 µM) in experiment [8]; 6.25 µg/mL (≈ 5.39 µM) in experiment [9]; 0.78 µg/mL (≈ 0.672 µM) in [10]; 0.78 µg/mL (≈ 0.672 µM) in [11].
Turning to `CCCCCOc1ccc(-c2ccc(-c3ccc(C(=O)N[C@H]4CCCNC(=O)[C@@H]5C[C@H](N=C(N)N)CN5C(=O)[C@H]([C@@H](C)O)NC(=O)[C@H](CCc5ccc(O)c(C(=O)CN)c5)NC(=O)[C@@H]5CCCN5C(=O)[C@H]([C@@H](C)O)NC4=O)cc3)cc2)cc1` ({pTerphenylCO(4''-OnC5H11)}-[Orn]TP[hTyr(3-COCH2NH2)]T[Pro(cis-4-guanidino)]; lactam 1-C), the MIC was found to be 0.2 µg/mL (≈ 0.175 µM) in [1] (setting [12]); 1.56 µg/mL (≈ 1.36 µM) in experiment [2] (setting [13]); 25 µg/mL (≈ 21.8 µM) in [3] (setting [14]); 0.39 µg/mL (≈ 0.341 µM) in experiment [4] (setting [15]); 0.1 µg/mL (≈ 0.0874 µM) in experiment [5] (setting [12]); 0.2 µg/mL (≈ 0.175 µM) in experiment [6] (setting [12]). The MIC in [7] (setting [16]) came to 0.2 µg/mL (≈ 0.175 µM); in [8] (setting [17]), 0.39 µg/mL (≈ 0.341 µM); in [9] (setting [18]) it was 25 µg/mL (≈ 21.8 µM); in [10] (setting [19]) it was 0.39 µg/mL (≈ 0.341 µM); in [11] (setting [20]) it was 0.39 µg/mL (≈ 0.341 µM).
With `CCCCCOc1ccc(-c2ccc(-c3ccc(C(=O)N[C@H]4CCCNC(=O)[C@@H]5C[C@H](N=C(N)N)CN5C(=O)[C@H]([C@@H](C)O)NC(=O)[C@H](CCc5ccc(O)c(C(=O)CCN)c5)NC(=O)[C@@H]5C[C@@H](O)CN5C(=O)[C@H]([C@@H](C)O)NC4=O)cc3)cc2)cc1` ({pTerphenylCO(4''-OnC5H11)}-[Orn]T[Hyp][X4]T[Pro(cis-4-guanidino)]; lactam 1-C), the MIC in [1] (setting [12]) was determined as 0.2 µg/mL (≈ 0.17 µM); in experiment [2] (setting [13]), 1.56 µg/mL (≈ 1.33 µM); in experiment [3] (setting [14]) it was 6.25 µg/mL (≈ 5.32 µM); in [4] (setting [15]), 1.56 µg/mL (≈ 1.33 µM); in [5] (setting [12]) it was 0.2 µg/mL (≈ 0.17 µM); in experiment [6] (setting [12]), 0.2 µg/mL (≈ 0.17 µM). The MIC amounted to 0.2 µg/mL (≈ 0.17 µM) in experiment [7] (setting [16]); 0.39 µg/mL (≈ 0.332 µM) in [8] (setting [17]); 12.5 µg/mL (≈ 10.6 µM) in experiment [9] (setting [18]); 0.39 µg/mL (≈ 0.332 µM) in experiment [10] (setting [19]); 0.2 µg/mL (≈ 0.17 µM) in experiment [11] (setting [20]).
Regarding `CCCCCOc1ccc(-c2ccc(-c3ccc(C(=O)N[C@H]4CCCNC(=O)[C@@H]5C[C@H](N)CN5C(=O)[C@H]([C@@H](C)O)NC(=O)[C@H](CCc5ccc(O)c(C(=O)CN)c5)NC(=O)[C@@H]5C[C@@H](O)CN5C(=O)[C@H]([C@@H](C)O)NC4=O)cc3)cc2)cc1` ({pTerphenylCO(4''-OnC5H11)}-[Orn]T[Hyp][hTyr(3-COCH2NH2)]T[Pro(4S-NH2)]; lactam 1-C), the MIC in [1] (setting [12]) amounted to 0.01 µg/mL (≈ 0.00894 µM); in experiment [2] (setting [13]), 0.78 µg/mL (≈ 0.697 µM); in [3] (setting [14]), 0.2 µg/mL (≈ 0.179 µM); in experiment [4] (setting [15]), 0.2 µg/mL (≈ 0.179 µM); in [5] (setting [12]) it was 0.1 µg/mL (≈ 0.0894 µM); in [6] (setting [12]) it was 0.01 µg/mL (≈ 0.00894 µM). The MIC in experiment [7] (setting [16]) is 0.1 µg/mL (≈ 0.0894 µM); in experiment [8] (setting [17]), 0.1 µg/mL (≈ 0.0894 µM); in [9] (setting [18]) it was 3.2 µg/mL (≈ 2.86 µM); in [10] (setting [19]), 0.1 µg/mL (≈ 0.0894 µM); in experiment [11] (setting [20]), 0.2 µg/mL (≈ 0.179 µM).
